Laboratory results reported in paper PMC7312733, “From Graphite to Laccase Biofunctionalized Few-Layer Graphene: A “One Pot” Approach Using a Chimeric Enzyme” (International Journal of Molecular Sciences, 2020).

Biological target: T1, POXA1b (Pleurotus ostreatus, UniProt O60199)
T1 construct: wild-type laccase secreted by Pichia pastoris; concentrated and dialysed supernatant, not further purified
T1 sequence (O60199 21-533): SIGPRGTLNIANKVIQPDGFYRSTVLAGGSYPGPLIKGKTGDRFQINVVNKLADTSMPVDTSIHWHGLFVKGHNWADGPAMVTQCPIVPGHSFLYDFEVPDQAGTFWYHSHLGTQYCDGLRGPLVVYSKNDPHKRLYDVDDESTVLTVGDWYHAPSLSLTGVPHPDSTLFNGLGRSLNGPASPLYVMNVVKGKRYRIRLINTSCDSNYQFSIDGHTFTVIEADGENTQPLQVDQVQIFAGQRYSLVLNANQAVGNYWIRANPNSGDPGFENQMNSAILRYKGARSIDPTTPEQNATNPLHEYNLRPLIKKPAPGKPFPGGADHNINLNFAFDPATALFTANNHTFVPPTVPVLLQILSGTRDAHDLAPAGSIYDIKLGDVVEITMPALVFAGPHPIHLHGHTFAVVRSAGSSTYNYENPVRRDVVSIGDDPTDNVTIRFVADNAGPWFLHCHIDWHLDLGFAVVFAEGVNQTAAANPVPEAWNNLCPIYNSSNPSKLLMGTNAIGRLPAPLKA
Test: spectrophotometric oxidation assay at […] nm
Assay type: biochemical
Details: 2 mM ABTS, 0.1 M sodium citrate pH 3.0, room temperature

## CCn1c(=NN=c2sc3cc(S(=O)(=O)O)ccc3n2CC)sc2cc(S(=O)(=O)O)ccc21 [ABTS, 2,2′-azino-bis(3-ethylbenzothiazoline-6-sulphonic acid)]
  spectrophotometric oxidation assay at 420 nm: The laccase activity was assayed at room temperature, monitoring the oxidation of ABTS
